This series is described as follows: Flow-through skin penetration of 14C-labelled glucarolactone. The series is classed as in vitro ADME, pig. As to conditions: 20 hours. The text has this:
In order to simulate human skin penetration in vivo, full thickness pig skin was used in a flow-through skin penetration cell system. For this purpose, the technique described by Bronough R L, and Stuart R F in "Methods for in vitro percutaneous absorption studies IV: The flow-throughdiffusion cell", published in J. Pharm.
This system allows for the study of percutaneous absorption from topically applied substances in a controlled manner, i.e. at controlled temperature and with constant receptor fluid flow rate. The flow-through skin penetration cell has a surface area of skin of 0.38 cm^2 exposed to a formulation containing a test substance. At time zero, 25 μl of a formulation containing tracer amounts of ^14 C-labelled glucarolactone was applied to the skin and left for 20 hours. During this period of penetration, receptor fluid flowing underneath the dermal side of the skin was collected in fractions at 2 hour intervals. At time 20 hours, the skin was vigorously washed to remove all non-absorbed material, the remaining receptor fluid in the cell also being collected at this time.
Subsequently, the piece of skin was detached from the cell and keratatomed at a thickness of about 1.3 mm. This procedure will separate the lower section of the dermis from that containing the stratum corneum, viable epidermis, upper part of dermis and neck of hair follicle. To refine further the picture of distribution of radioactivity, the upper section was subsequently tape stripped 5 times using transparent adhesive tape to remove residual radioactive materials adhering to the outer surface of the skin. All these sections were digested and counted for radioactivity. Each penetration cell therefore yielded 4 results:
i) transdermal penetration, i.e. the amount retrieved in receptor fluid flowing on the dermal side of the skin;
ii) tape strips, i.e. amounts of radio active material adhering to the skin surface;
iii) upper section of skin, i.e. remainder of stratum corneum, neck of hair follicle, viable epidermis and upper part of dermis;
iv) lower section of skin, i.e. remainder of dermis containing the remaining part of hair follicles and dermal papillae.
The results obtained from categories ii), iii) and iv) above together constitute the amounts retrieved from within the skin, i.e. dermal penetration. The results may be expressed as percentage of dose applied, or as the actual amounts delivered.
The following formulation was used to determine penetration and delivery of glucarolactone in accordance with the Bronaugh flow-through skin penetration cell technique:
Scintillation counting was employed to determine the amount of the enzyme inhibitor, glucarolactone, which had penetrated the skin to a point where it would be available to inhibit glycosaminoglycanase in the immediate environment of the hair bulb.
The results obtained are shown in the following Table 1 in which the values given represent percentages of the glucarolactone dose applied topically which actually penetrates into and through the skin and is recovered at various levels. In addition, the actual amounts of penetrated glucarolactone is given. The results shown are the average and standard error of the mean of 33 determinations.

The mark [1] stands for this setting: dermal (tapes + upper + lower section), 8% w/w glucarolactone formulation, mean ± SEM of 33 determinations.
Where [2] appears, read: lower section of skin (hair follicles, dermal papillae), 8% w/w glucarolactone formulation, mean ± SEM of 33 determinations.
Setting [3] is: tape strips (skin surface), 8% w/w glucarolactone formulation, mean ± SEM of 33 determinations.
[4] abbreviates: total (transdermal + dermal), 8% w/w glucarolactone formulation.
The mark [5] stands for this setting: transdermal (receptor fluid), 8% w/w glucarolactone, 10% ethane diol formulation, mean ± SEM of 33 determinations.
Where [6] appears, read: upper section of skin, 8% w/w glucarolactone formulation, mean ± SEM of 33 determinations.

Each structure is given as a SMILES string.

In the case of `O=C(O)[C@@H](O)[C@H]1OC(=O)[C@H](O)[C@H]1O` [glucarolactone], under setting [1], the “Actual Amount GL Delivered, Dermal” value worked out at 72.87 ± 16.62 µg and the “Percentage of Applied Dose, Dermal” value worked out at 3.719 ± 0.848%. Further, under setting [2], the “Actual Amount GL Delivered, lower section” value was determined as 56.63 ± 14.33 µg and the “Percentage of Applied Dose, lower section” value was found to be 2.890 ± 0.731%. In addition, under setting [3], the “Actual Amount GL Delivered, tapes” value came to 2.38 ± 0.39 µg and the “Percentage of Applied Dose, tapes” value amounted to 0.122 ± 0.020%. Moreover, under setting [4], the “Actual Amount GL Delivered, Total” value came out at 80.67 µg and the “Percentage of Applied Dose, Total” value amounted to 4.117%. For the same compound, under setting [5], the “Actual Amount GL Delivered, Transdermal” value worked out at 7.80 ± 2.47 µg and the “Percentage of Applied Dose, Transdermal” value was 0.398 ± 0.126%. Under setting [6], the “Actual Amount GL Delivered, upper section” value was 13.86 ± 3.00 µg and the “Percentage of Applied Dose, upper section” value worked out at 0.707 ± 0.153%.
